Assay: gradient 5% acetonitrile 3 min, to 50% in 2 min, to 85% in 15 min, held 3 min, 100 µL/min
Settings: column: Zorbax Extend-C18 2.1 x 50 mm; eluents: water / acetonitrile, 0.1% formic acid
Summary of the method: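 Retention times of pure standards were taken from adduct peaks that were selected by computer and manually inspected. Over 3 months, mixtures of ~100 molecules were run by HPLC–quadrupole time-of-flight mass spectrometry in positive and negative ionization mode. The Zorbax Extend-C18 column (2.1 × 50 mm, 1.8 μm) ran at 100 μL/min in water and acetonitrile, each containing 0.1% formic acid, with 40 μL dead volume and 900 μL dwell volume.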

Row | SMILES | RP-LC retention time [s]
1 | C=CCn1c(NCc2cccc(Br)c2)nc2ccccc21 | 703
2 | CCc1onc(C)c1C1CCCN1C(=O)Nc1ccc(C(=O)OC)cc1 (stereo not drawn) | 806
3 | O=C1/C(=C\c2ccc(O)c(O)c2)Oc2cc(O)ccc21 | 710
4 | COc1cc(CNC(=O)C2CCN(c3nc(C4CCC4)nc4csc(C)c34)CC2)cc(OC)c1 | 748
5 | Cc1cc(C)c2c(N3CCCCC3)nc(C(=O)NCC3CCCO3)nc2n1 (stereo not drawn) | 621
6 | Cc1cc(-n2cc(C(=O)N3CCC(NC(=O)Cc4cccs4)CC3)nn2)ccc1F | 746
7 | O=c1ccc(N2CCCN(S(=O)(=O)c3ccc(F)cc3F)CC2)nn1-c1ccc(Cl)cc1 | 966
8 | CN1Cc2c(N)cccc2C(c2ccccc2)C1 (stereo not drawn) | 678
9 | Cc1nc(-c2ccc3c(c2)CCN3C(=O)COc2ccc(Cl)cc2)no1 | 976
10 | CCOc1ccc(C(=O)N2C[C@@H]3C[C@H](NC(=O)c4cccs4)[C@H]2C3)cc1 | 783
11 | Cc1ccc(C)c2c(=O)c3c([nH]c12)CCN(CC(=O)Nc1ccccc1Cl)C3 | 656
12 | Cc1cc(C)n(-c2ccnc(N3CCc4ccccc4C3)n2)n1 | 1150
13 | Cc1nc(C)c(C(=O)N2CC(Oc3ccc(-c4nc(-c5ccccc5)no4)cc3)C2)s1 | 1130
14 | COC1=CC(=O)OC(/C=C/c2ccccc2)C1 (stereo not drawn) | 883
15 | CCCOc1ccc(CNC(=O)C2CCc3nc(N4CCCCC4)ncc3C2)cc1 (stereo not drawn) | 850
16 | Cc1ccc(-c2nc(-c3ccc4ncn(C)c4c3)no2)cc1C | 842
17 | Cc1ccc2ncn(C3CCN(C(=O)Nc4cc(Cl)ccc4C)CC3)c(=O)c2c1 | 911
18 | CCCN(CC1CCOC1)S(=O)(=O)c1cc(F)ccc1C (stereo not drawn) | 943
19 | CCCCNC(=O)CN1C(=O)C2CCCCN2c2ccc(C(=O)N3CCCC3)cc21 (stereo not drawn) | 743
20 | O=C(CN1C(=O)CCc2cc(Br)ccc21)NCc1ccccc1 | 784

Row | SMILES | RP-LC retention time [s]
21 | Cc1ccc(-c2nnc(Cc3nc(-c4ccccc4)no3)o2)cc1F | 1050
22 | Cc1cc2c(c(=O)n(-c3ccc(F)cc3)c(=O)n2CC(=O)Nc2cccc(C(C)C)c2)n1C | 921
23 | CCc1nn2c(CNS(=O)(=O)c3ccc(C)cc3C)c(-c3ccccc3)nc2s1 | 1020
24 | CCn1cc(C(=O)NCc2ccccc2C)c2cccnc21 | 809
25 | COc1ccc(-c2cn3c(CCC(=O)Nc4ccc5c(c4)OCCO5)csc3n2)cc1 | 678
26 | CCCCNC(=O)CSc1cc(N2CCC(C(=O)NC3CC3)CC2)ncn1 | 615
27 | COCCN1C(=O)CC[C@]2(C(=O)NCc3cc(F)ccc3F)CCCC[C@@H]12 | 724
28 | O=C(NCC1CCCO1)c1cc(=O)n(Cc2ccc(Cl)cc2)c2ccccc12 (stereo not drawn) | 815
29 | Cc1cc(C)n(Cc2nc(-c3ccc(NC(=O)c4cccs4)cc3)oc2C)n1 | 896
30 | c1ccc(-n2nnc(-c3noc(-c4ccccn4)n3)c2-c2ccncc2)cc1 | 718
31 | O=C1CCCCC(Cc2cccnc2)(C(=O)NCc2ccc3c(c2)OCO3)N1 (stereo not drawn) | 591
32 | O=C(NCCc1nc2cccnc2n1-c1ccccc1)C1CCCCC1 | 730
33 | O=C(Cc1csc2nc(-c3ccccc3)cn12)N1CCN(c2ccccc2)CC1 | 820
34 | COc1ccc(C)cc1NC(=O)N1CCCC(C)(C(=O)NCc2ccc(C)cc2)C1 (stereo not drawn) | 968
35 | COc1ccc(S(=O)(=O)N2CCCC(C(=O)Nc3cccc(F)c3)C2)cc1C (stereo not drawn) | 1040
36 | CCC(=O)N(CCOC)CC(=O)N1CCc2sccc2C1COc1ccccc1F (stereo not drawn) | 831
37 | COC(=O)C1=CN(CC(=O)N2CCN(c3ccccc3)CC2)S(=O)(=O)N=C1C | 871
38 | CCN1C(=O)c2cccnc2Sc2cc(NC(=O)c3sccc3C)ccc21 | 842
39 | N#Cc1cccc(CN2CCC3(CCC3O)CC2)c1 (stereo not drawn) | 565
40 | Cc1cc(C)cc(N2CC(C)Cn3c2nc2c3c(=O)n(CC(=O)O)c(=O)n2C)c1 (stereo not drawn) | 826

Row | SMILES | RP-LC retention time [s]
41 | Cc1nc2cc(-c3noc(-c4ccc(F)cc4)n3)ccc2n(C(C)C)c1=O | 1200
42 | CCc1ccc(NC(=O)N2CCC(n3cnc4cc(F)ccc4c3=O)CC2)cc1 | 867
43 | COc1ccc(N2CCN(c3nc(C(=O)NCC4CCCO4)cs3)CC2)cc1 (stereo not drawn) | 821
44 | CN(C)S(=O)(=O)c1ccc2c(c1)N(CC(=O)NCc1ccc(F)cc1)C(=O)C1CCCCN21 (stereo not drawn) | 896
45 | COc1ccc(-c2ncc3c(=O)n(Cc4cccc(OC)c4)c(=O)n(C)c3n2)cc1 | 1130
46 | Cc1ccc(NC(=O)C2(C)Oc3cccnc3N(C)C2=O)cc1 (stereo not drawn) | 845
47 | COC(=O)c1cccc(Nc2c(-c3ccc(Cl)cc3)nc3cnccn23)c1 | 905
48 | CSc1cccc(NC(=O)N2CCC(N3CCN(Cc4ccccc4)C(=O)C3=O)CC2)c1 | 770
49 | CSc1ccc(CNC(=O)Cn2c(=O)cc(-c3nc(C)no3)c3ccccc32)cc1 | 859
50 | COc1ccc(CNC(=O)C2(C)CCN(C(=O)NCc3ccco3)CC2)cc1 | 700
51 | CC(NC(=O)c1ccc(-c2ccnc(N3CCCCC3)n2)cc1)c1cccnc1 (stereo not drawn) | 651
52 | Cc1cn(C)c(CC(=O)NCc2ccco2)c1C(=O)O | 671
53 | CCCc1nc(NCc2ccc3c(c2)OCO3)ncc1C(=O)O | 791
54 | COCc1noc([C@@H]2CN(C(=O)CC3CCCC3)C[C@H]2CO)n1 | 670
55 | NC(=O)C1CCN(C(=O)CN2CCN(c3ccccc3)CC2)CC1 | 582
56 | COC(=O)c1ncn2c1C(=O)N(Cc1ccccc1)C(C)(C(=O)NC1CCCCC1)C2 (stereo not drawn) | 750
57 | Cc1ccc(NC(=O)Cc2csc3nc(-c4ccc(C)c(C)c4)cn23)c(C)c1 | 930
58 | CCn1cc(CCNC(=O)Nc2ccc(C)cc2Cl)c2cccnc21 | 812
59 | COc1cccc(-c2noc(Cn3ccn(Cc4ccc(Cl)cc4)c(=O)c3=O)n2)c1 | 895

The remaining lines, values ahead:

Row | RP-LC retention time [s] | SMILES
60 | 747 | CCc1ccc(C(=O)Nc2cc3c(cc2S(=O)(=O)C(C)C)n(C)c(=O)n3C)cc1
61 | 599 | COCCn1c(CC2CCN(C(=O)Cc3ccsc3)C2)nc2cccnc21 (stereo not drawn)
62 | 896 | COCc1nnc(C(=O)Nc2cccc(C(=O)NCCc3c[nH]c4ccc(Cl)cc34)c2)s1
63 | 715 | O=C(Cc1ccccc1Cl)NCCn1cnc(-c2ccccc2)cc1=O
64 | 745 | CCC(C)(C)NC(=O)C1CCN(S(=O)(=O)c2ccc3c(c2)NC(=O)CO3)CC1
65 | 693 | COc1ccc(OC)c(NC(=O)CN2CCc3[nH]c4c(C)ccc(C)c4c(=O)c3C2)c1
66 | 997 | Cc1ccc(C(=O)N2CCc3cn(C)c4cccc(c34)C2)cc1F
67 | 704 | O=C(Cn1cc(C(=O)C(=O)N2CCOCC2)c2ccccc21)NCc1ccc2c(c1)OCCCO2
68 | 653 | O=C(Cc1cccs1)NCCS(=O)(=O)N1CCN(c2ncccn2)CC1
69 | 623 | COCCCNS(=O)(=O)c1cc(-c2[nH]ncc2C(=O)N2CCCC2)oc1C
70 | 1250 | O=C(Nc1cccc(Br)c1)C1CCCN(c2ncc(-c3ccccc3)cn2)C1 (stereo not drawn)
71 | 713 | CC1CCN(S(=O)(=O)N2CCCC(C(=O)NC3CCN(Cc4ccccc4)CC3)C2)CC1 (stereo not drawn)
72 | 688 | Cc1ccoc1C(=O)N1C[C@@H](CO)[C@H](c2nc(C3CC3)no2)C1
73 | 1100 | COc1ccc(C(=O)Nc2nc3c(s2)Cc2c(Br)ccc(OC)c2-3)cc1OC
74 | 602 | Cc1ccc(Cn2cc(-c3ccncc3)cc2C(=O)N2CCN(C3CCCCC3)CC2)cc1
75 | 958 | CCc1noc(C2CCCCN2Cc2nc(Cc3ccccc3)no2)n1 (stereo not drawn)
76 | 1340 | COc1cccc(-n2c(=O)c(C(=O)Nc3ccc(Cl)cc3)c(O)c3cccnc32)c1
77 | 1140 | O=c1c2ccccc2c(-c2nc(-c3ccncc3)no2)cn1-c1ccc(Cl)cc1
78 | 700 | COc1ccc(N2CCN(C(=O)c3csc(C(=O)NC4CC4)n3)CC2)cc1
79 | 797 | O=C(Cc1csc(NC(=O)c2ccco2)n1)Nc1nc2ccc([N+](=O)[O-])cc2s1
80 | 699 | O=C(CCCc1nnc2c(=O)n(-c3ccc(F)cc3)ccn12)NCCc1c[nH]c2ccccc12
81 | 685 | CC(C)(CO)NCc1ccc(-c2ccc(Cl)cc2Cl)o1
82 | 533 | O=C(CCNc1cnc2cnccn12)NCc1ccc(N2CCCCC2)cc1
83 | 860 | CN1c2cc(C(=O)NCc3ccccc3Br)ccc2C(=O)N2CCCCC21 (stereo not drawn)
84 | 876 | O=C(NCc1ccccc1OC(F)(F)F)c1ccc(OCC(=O)C2CC2)cc1
85 | 1290 | CCCCn1c(=O)c2ccccc2n(Cc2nc(-c3ccc(C)c(C)c3)no2)c1=O
86 | 945 | Cc1ccc(NC(=O)C2CCN(S(C)(=O)=O)c3cc(C)ccc3O2)c(C)c1 (stereo not drawn)
87 | 917 | O=C(NCc1ccco1)C1CCN(S(=O)(=O)c2cc(-c3noc(C4CCC4)n3)cs2)CC1
88 | 982 | CC(C)CCn1nc2c(S(=O)(=O)N3CCCCCC3)cccn2c1=O

Source: the METLIN SMRT retention time set (Domingo-Almenara et al. 2019)
